The source of these data is patent US20230067929A1, “HETEROCYCLIC DERIVATIVES, PHARMACEUTICAL COMPOSITIONS AND THEIR USE IN THE TREATMENT, AMELIORATION OR PREVENTION OF CANCER” (Tolremo Therapeutics AG, priority 2018, published 2023).

A value given as a limit tells only on which side of the number the result lay.

The test system of the test is A375 cells. Briefly: A375 cell immunofluorescence assay (with 1 μM S1152 and 0.5 μM S1008), EC50. Format: cell-based. The note with it: 1 μM S1152 + 0.5 μM S1008, one day, ratio FL2/FL3 staining (sc-365823 antibody). The method, then: One thousand four hundred A375 cells were seeded in each well of a 384 well microplate. One day later they were treated with 1 μM S1152 (Selleckchem) in dimethyl sulfoxide, 0.5 μM S1008 (Selleckchem) and dose ranges of invention compounds for one day in Dulbecco's Modified Eagle's Medium supplemented with 10% fetal calf serum and 2 mM (2S)-2-amino-4-carbamoylbutanoic acid. Wells were incubated with 4% polyoxymethylene (Sigma Aldrich 158127) at ambient temperature. After ten minutes, polyoxymethylene was replaced with phosphate-buffered saline. After one minute phosphate-buffered saline was replaced with 0.2% polyethylene glycol octylphenyl ether in phosphate-buffered saline. After ten minutes at ambient temperature 0.2% polyethylene glycol octylphenyl ether in phosphate-buffered saline was replaced with 1% aminoethanoic acid in phosphate-buffered saline. […] After one hour at 37° C., the solution was replaced with phosphate-buffered saline twice. Phosphate-buffered saline was replaced with 2 μg/ml A-11029 (Invitrogen) in 0.05% polyoxyethylene (20) sorbitan monolaurate in phosphate-buffered saline. […] After one hour at ambient temperature in the dark, signal in wells was measured with a Acumen Cellista. 3,8-Diamino-5-[3-(diethylmethylammonio)propyl]-6-phenylphenanthridinium diiodide-positive objects were defined in FL3 (565-600 nm) with a perimeter between 50-800 μm and a total intensity of 10000-1000000 FLU. Signal in FL2 (500-530 nm) was measured in defined objects. A normalized ratio of total ln FL2 over total ln FL3 staining was log transformed. A non-linear regression (variable slope, 4 parameters) was used to calculate EC50 values using GraphPad Prism (Version 7.0d).
On to `CCC(=O)N1CCCC(c2nc(Nc3cccc(F)c3)cc(-c3cnn(CC(F)(F)F)c3)n2)C1` (stereo not drawn), for which the EC50 fell in the range of 1 to 10 µM.

For `CC(=O)N1CCCC(c2nc(Nc3nc(C)co3)cc(-c3cccnc3)n2)C1` (stereo not drawn), the 50% effective concentration (EC50) is over 10 µM.

Consider `CC(=O)N1CCCC(c2cc(Nc3cccc(F)c3)cc(-c3c(C)noc3C)n2)C1` (stereo not drawn), for which the EC50 is 1 to 10 µM.

Turning to `CC(=O)N1CCCC(c2nc(Nc3cccc(C)c3)cc(-c3cncc(N4CCOCC4)c3)n2)C1` (stereo not drawn), the EC50 is under 1 µM.

As to `CC(=O)N1CCCC(c2nc(Nc3ncccn3)cc(-c3cccnc3)n2)C1` (stereo not drawn), the EC50 is over 10 µM.

Take `CC(=O)N1CCCC(c2cc(Nc3cccc(F)c3)nc(-c3cccnc3)c2)C1` (stereo not drawn): the EC50 is over 10 µM.

Take `CC(=O)N1CCCC(c2nc(Nc3ccc(C)c(C)c3)cc(-c3cccnc3)n2)C1` (stereo not drawn): the EC50 was under 1 µM.

For `COc1cncc(-c2cc(Nc3ccc(C)c(F)c3)nc(C3CCCN(C(C)=O)C3)n2)c1` (stereo not drawn), the 50% effective concentration (EC50) was 1 to 10 µM.

With `COc1cncc(-c2cc(Nc3cccc(-n4cnnc4)c3)nc(C3CCCN(C(C)=O)C3)n2)c1` (stereo not drawn), the EC50 was over 10 µM.

Regarding `COc1cncc(-c2cc(Nc3cccc(F)c3)cc(C3CCCN(C(C)=O)C3)n2)c1` (stereo not drawn), the EC50 is 1 to 10 µM.

For the molecule `CCC(=O)N1CCCC(c2nc(Nc3cccc(F)c3)cc(-c3cnn(C4CCC4)c3)n2)C1` (stereo not drawn), the concentration giving a half-maximal response (EC50) was over 10 µM.

As for `CC(=O)N1CC(c2ccccc2)CC(c2nc(Nc3cccc(F)c3)cc(-c3cccnc3)n2)C1` (stereo not drawn), the EC50 is under 1 µM.

Regarding `CCC(=O)N1CCCC(c2nc(Nc3ccccc3F)cc(-c3ccncc3)n2)C1` (stereo not drawn), the EC50 was over 10 µM.

In the case of `CC(=O)N1CCCC(c2nc(Nc3cccc(F)c3)cc(-c3ncc(C)o3)n2)C1` (stereo not drawn), the EC50 was over 10 µM.

Take `COc1ccc(Nc2cc(-c3cncc(OC)c3)nc(C3CCCN(C(C)=O)C3)n2)cc1` (stereo not drawn): the EC50 fell in the range of 1 to 10 µM.

Consider `CC(=O)N1C[C@H](c2nc(Nc3cncc(C)c3)cc(-c3cncc(C4COC4)c3)n2)CC[C@@H]1C`, for which the EC50 was under 1 µM.

`CC(=O)N1CCCC(c2nc(Nc3ccccn3)cc(-c3cncnc3)n2)C1` (stereo not drawn): the EC50 is over 10 µM.

As for `O=S(=O)(N1CCCC(c2nc(Nc3cccc(F)c3)cc(-c3cccnc3)n2)C1)C(F)(F)F` (stereo not drawn), the EC50 was over 10 µM.

`CC(=O)N1CCCC(c2nc(Nc3cccc(C)c3)cc(-c3cncc(C)c3)n2)C1` (stereo not drawn): the concentration for a half-maximal effect (EC50) is under 1 µM.

Regarding `CCC(=O)N1CCCC(c2nc(NCc3ccccc3)cc(-c3cccnc3)n2)C1` (stereo not drawn), the concentration for a half-maximal effect (EC50) was over 10 µM.

Take `CC(=O)N1CC(c2nc(Nc3cccc(F)c3)cc(-c3cccnc3)n2)CC(F)(F)C1` (stereo not drawn): the EC50 was over 10 µM.

Consider `CC(=O)N1CCCC(c2nc(Nc3cccc(F)c3)cc(-c3cncc(-c4nccs4)c3)n2)C1` (stereo not drawn), for which the EC50 is under 1 µM.

On to `COc1cncc(-c2cc(Nc3ccc(Cl)cc3)nc(C3CCCN(C(C)=O)C3)n2)c1` (stereo not drawn), for which the concentration for a half-maximal effect (EC50) lay in the range of 1 to 10 µM.

As to `CC(=O)N1CCCC(c2nc(Nc3cccc(F)c3)cc(-c3cccnc3)n2)C1` (stereo not drawn), the concentration for a half-maximal effect (EC50) was under 1 µM.

Regarding `CCC(=O)N1CCCC(c2nc(Nc3cccc(C(F)(F)F)c3)cc(-c3cccnc3)n2)C1` (stereo not drawn), the concentration giving a half-maximal response (EC50) was over 10 µM.

For the molecule `CCC(=O)N1CCCC(c2nc(Nc3cccc(F)c3)cc(-c3cnc(NC)nc3)n2)C1` (stereo not drawn), the EC50 was over 10 µM.

For `CCC(=O)N1CCCC(c2nc(Nc3cccc(F)c3)cc(-c3cn(C)nc3C)n2)C1` (stereo not drawn), the EC50 was over 10 µM.

With `CC(=O)N1CCCC(c2nc(Nc3cccc(C)c3)cc(-c3ccnnc3)n2)C1` (stereo not drawn), the EC50 was 1 to 10 µM.

Turning to `CCC(=O)N1CCCC(c2nc(Nc3cccc(F)c3)cc(NC3CCCCC3)n2)C1` (stereo not drawn), the EC50 was over 10 µM.

Consider `CCC(=O)N1CCCC(c2nc(Nc3ccccc3OC)cc(-c3cccnc3)n2)C1` (stereo not drawn), for which the EC50 was over 10 µM.

Regarding `CCC(=O)N1CCCC(c2nc(C)cc(Nc3cccc(F)c3)n2)C1` (stereo not drawn), the EC50 was over 10 µM.

As to `CCC(=O)N1CCCC(c2nc(Nc3cccc(F)c3)cc(-c3ccccc3OC(F)(F)F)n2)C1` (stereo not drawn), the 50% effective concentration (EC50) is over 10 µM.

As for `CC(=O)Nc1ccc(-c2cc(Nc3cccc(F)c3)nc(C3CCCN(C(C)=O)C3)n2)cc1` (stereo not drawn), the half-maximal effective concentration (EC50) was under 1 µM.

For `CC(=O)N1CCCC(Nc2cc(Nc3cccc(F)c3)nc(C3CCCN(C(C)=O)C3)n2)C1` (stereo not drawn), the EC50 was over 10 µM.

Take `COc1cncc(-c2cc(Cc3cccc(F)c3)nc(C3CCCN(C(C)=O)C3)n2)c1` (stereo not drawn): the concentration giving a half-maximal response (EC50) is over 10 µM.

For `CC(=O)N1CCCC(c2nc(Nc3cncc(C)n3)cc(-c3cncnc3)n2)C1` (stereo not drawn), the EC50 was over 10 µM.

As to `O=C1CCC2C(c3nc(Nc4cccc(F)c4)cc(-c4cccnc4)n3)CCCN12` (stereo not drawn), the EC50 was 1 to 10 µM.

On to `CC(=O)N1CCCC(c2nc(Nc3cncnc3)cc(-c3cccnc3)n2)C1` (stereo not drawn), for which the EC50 is over 10 µM.

`CC(=O)N1CCCC(c2nc(Nc3cccc(F)c3)cc(-c3ccccc3)n2)C1` (stereo not drawn): the half-maximal effective concentration (EC50) lay within 1 to 10 µM.

With `CC(=O)N1CCCC(c2nc(Nc3cccc(F)c3)cc(-c3cncc4nc(C)oc34)n2)C1` (stereo not drawn), the EC50 is under 1 µM.

For `CCC(=O)N1CCCC(c2nc(Nc3cccc(F)c3)cc(-c3cscn3)n2)C1` (stereo not drawn), the EC50 was over 10 µM.

With `CCC(=O)N1CCCC(c2nc(Nc3cccc(F)c3)cc(C3=CCCCC3)n2)C1` (stereo not drawn), the EC50 is over 10 µM.

For the molecule `CC(=O)N1CCCC(c2nc(Nc3cccc(F)c3)cc(-c3ccc(N4CCN(C)CC4)nc3)n2)C1` (stereo not drawn), the EC50 was over 10 µM.

For `CC(=O)N1CCCC(c2nc(Nc3cccc(F)c3)cc(-c3cncc4[nH]ccc34)n2)C1` (stereo not drawn) [drawing 575], the 50% effective concentration (EC50) is 1 to 10 µM.

Take `CCC(=O)N1CCCC(c2nc(Nc3cccc(F)c3)cc(-c3ccccc3NC(C)=O)n2)C1` (stereo not drawn): the concentration for a half-maximal effect (EC50) is over 10 µM.

As to `CC(=O)N1CCCC(c2nc(Nc3cncc(C)c3)cc(-c3cccnc3)n2)C1` (stereo not drawn), the EC50 lay in the range of 1 to 10 µM.

For `Fc1cccc(Nc2cc(-c3cccnc3)nc(C3CCCN(CC(F)(F)F)C3)n2)c1` (stereo not drawn), the EC50 is over 10 µM.

Regarding `CCC(=O)N1CCCC(c2nc(Nc3cccc(F)c3)cc(-c3cccc(O)c3)n2)C1` (stereo not drawn), the EC50 was in the range of 1 to 10 µM.

On to `CC(=O)N1CCCC(c2nc(Nc3cccc(F)c3)cc(-c3ccc(N4CCOCC4)nc3)n2)C1` (stereo not drawn), for which the concentration giving a half-maximal response (EC50) lay within 1 to 10 µM.

Take `CC(=O)N1CCCC(c2nc(Nc3cncnc3)cc(Nc3cccc(F)c3)n2)C1` (stereo not drawn): the EC50 is 1 to 10 µM.

For `CC(=O)Nc1ccc(-c2cc(Nc3cccc(F)c3)nc(C3CCCN(C(C)=O)C3)n2)cn1` (stereo not drawn), the EC50 lay in the range of 1 to 10 µM.

As to `CCC(=O)N1CCCC(c2nc(Nc3cccc(F)c3)cc(-c3ccc(N(C)C)nc3)n2)C1` (stereo not drawn), the EC50 was over 10 µM.

As to `CCC(=O)N1CCCC(c2nc(Nc3cccc(Cl)c3)cc(-c3cccnc3)n2)C1` (stereo not drawn), the EC50 fell in the range of 1 to 10 µM.

On to `COC(=O)N1CCCC(c2nc(Nc3cccc(F)c3)cc(-c3cccnc3)n2)C1` (stereo not drawn), for which the concentration giving a half-maximal response (EC50) lay in the range of 1 to 10 µM.

Consider `CC(=O)N1CCCC(c2nc(Nc3cccc(F)c3)nc(-c3ccccc3)n2)C1` (stereo not drawn), for which the EC50 was in the range of 1 to 10 µM.

Turning to `CC(=O)N1CCCC(c2nc(Nc3ccnc(C)c3)cc(-c3cccnc3)n2)C1` (stereo not drawn), the EC50 was 1 to 10 µM.

Turning to `CC(=O)N1CCCC(c2nc(Nc3cccc(F)c3)cc(-c3ccoc3)n2)C1` (stereo not drawn), the EC50 is 1 to 10 µM.

For `CC(=O)N1CCCC(c2cc(Nc3cccc(F)c3)cc(-c3cncnc3)n2)C1` (stereo not drawn), the half-maximal effective concentration (EC50) fell in the range of 1 to 10 µM.

Regarding `CCC(=O)N1CCCC(c2nc(Nc3cccc(F)c3)cc(-c3cnn(C(C)C)c3)n2)C1` (stereo not drawn), the EC50 was over 10 µM.

With `CC(C)CN1CCCC(c2nc(Nc3cccc(F)c3)cc(-c3cccnc3)n2)C1` (stereo not drawn), the EC50 is over 10 µM.

On to `CC(F)(F)C(=O)N1CCCC(c2nc(Nc3cccc(F)c3)cc(-c3cccnc3)n2)C1` (stereo not drawn), for which the EC50 is over 10 µM.

As to `CCC(=O)N1CCCC(c2nc(Nc3cccc(F)c3)cc(-c3ccccc3)n2)C1` (stereo not drawn), the EC50 was 1 to 10 µM.

For the molecule `CCC(=O)N1CCCC(c2nc(Nc3cccc(F)c3)cc(C3CCCC3)n2)C1` (stereo not drawn), the EC50 is over 10 µM.
